This is an account of results in patent US20190030053A1, “COMPOSITION FOR INCREASING EXPRESSION OF PGC-1alpha” (BENEBIOSIS CO., LTD., priority 2016, published 2019).

Assay [1] relates to PGC-1α and related genes. The assay can be described thus: Gene expression in brain and hippocampus of epilepsy/convulsion brain disease models. Particulars: Noda epileptic rats, oral 0.1 mg/kg/day, 10 weeks. The assay is classed as in vivo, rat. The text has this:
In order to investigate the gene expression changes by the treatment with SL (3′-SL & 6′-SL) compositions in epilepsy/convulsion brain disease models, 4-week-old normal SD rats and epilepsy/convulsion brain disease models (Noda epileptic rat, NER) were purchased from Central Lab Animal (Korea). Water was freely accessible, and a commercially available pellet feed (Dooyeul Biotech, Korea) was given for two weeks. At 6 weeks of age, the SD rats were divided into four groups (composed of 8 animals per group): Eight 6-week-old male SD rats (normal rats; initial body weight, average 176.3±13.3 g) treated with a normal diet were used for a control group. […]
(§1) Sialyllactose or DW was orally administered daily. […] The dietary intake and body weight change were measured every 5 days. […]
(§2) The gene expression changes by the treatment with SL (3′-SL & 6′-SL) compositions were quantitatively compared in two main organs (brain and hippocampus) associated with bran diseases. RNA was extracted by TRIzol agent (Invitrogen). cDNA was synthesized by using RNA, which has been extracted as above and quantified, and a reverse transcription system (Promega, USA). The expression patterns of PGC-1α and related genes were measured by using pre-designed primers and probes (Applied Biosystems; PGC-1α, Mm00447181_m1, 999915_q1) for the synthesized cDNA and analysis targets (Fndc5, PGC-1α, Erra, UCP1, BDNF, SOD2, and GPX1). […]

The subject of assay [2] is PGC-1α and related genes. Kind of assay: Gene expression in brain and hippocampus of Huntington's disease models. The assay is classed as in vivo, mouse. Particulars: R6/2 mice, oral 0.1 mg/kg/day, 10 weeks.
Excerpt: In order to investigate the changes in gene expression and cognitive ability by the treatment with SL (3′-SL & 6′-SL) compositions in Huntington's brain disease model, 4-week-old mice were purchased from Central Lab Animal (Korea). Water was freely accessible, and a commercially available pellet feed (Dooyeul Biotech, Korea) was given for one week. At 5 weeks of age, the mice were divided into three groups (composed of eight mice for each group): Eight 5-week-old male c57/BL6 mice (normal mice; initial body weight, average 25.3±4.3 g) treated with a normal diet were used for a control group. […]
as §1
as §2, with “GAPDH, and Mm99999915_q1)” for “999915_q1)”

Regarding `CC(=O)N[C@H]1[C@H]([C@H](O)[C@H](O)CO)O[C@@](O[C@H]2[C@@H](O)[C@@H](CO)O[C@@H](O[C@H]3[C@H](O)[C@@H](O)C(O)O[C@@H]3CO)[C@@H]2O)(C(=O)O)C[C@@H]1O` (stereo partly drawn) [3′-SL, α-NeuNAc-(2→3)-β-D-Gal-(1→4)-D-Glc], the “expression levels of PGC-1α and related genes vs SL non-administration (epilepsy/convulsion brain disease model) group” value with PGC-1α and related genes [1] is “relatively low compared with 6′-SL”. In the assay on PGC-1α and related genes [2], the “expression levels of PGC-1α and related genes vs SL non-administration (Huntington's disease model) group” value was “relatively low compared with 6′-SL”.

With `CC(=O)N[C@H]1[C@H]([C@H](O)[C@H](O)CO)O[C@@](OC[C@H]2O[C@@H](O[C@H]3[C@H](O)[C@@H](O)[C@H](O)O[C@@H]3CO)[C@H](O)[C@@H](O)[C@H]2O)(C(=O)O)C[C@@H]1O` [6′-SL, α-NeuNAc-(2→6)-β-D-Gal-(1→4)-D-Glc], the “expression levels of PGC-1α and related genes vs SL non-administration (epilepsy/convulsion brain disease model) group” value in the assay on PGC-1α and related genes [1] is “significant increases”. Also, in the assay on PGC-1α and related genes [2], the “expression levels of PGC-1α and related genes vs SL non-administration (Huntington's disease model) group” value is listed as “very excellent”; the “expression levels of PGC-1α and related genes vs normal control group” value was “somewhat lower”.
